Experimental data from patent US20230142338A1, “THIOPHENYL DERIVATIVES USEFUL FOR MODULATING NUCLEIC ACID SPLICING” (REMIX THERAPEUTICS INC., priority 2020, published 2023).

Key:
Format in all cases: cell-based
HTT AJ mRNA = test: Splicing assay (RT-qPCR): increase in HTT alternative junction (AJ) mRNA; settings: A673 or K562 cells, 24 hours treatment; concentration having 50% response in AJ mRNA increase
Procedure, shortened: (§1)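 A673 (DMEM/10% FBS) or K562 (IMDM/10% FBS) cells treated 24 h at 37 °C with 11-point 3-fold dilutions, top final 10 uM, DMSO ≤0.25%. Lysates taken directly to RT-qPCR for HTT CJ and AJ isoforms, normalized to GAPDH, GUSB or PPIA. ΔΔCt vs DMSO control converted to RQ (2^−ΔΔCt), then percentage response.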

HTT CJ mRNA [1] = test: Splicing assay (RT-qPCR): decrease in HTT canonical junction (CJ) mRNA; settings: A673 or K562 cells, 24 hours treatment; concentration having 50% response in CJ mRNA decrease
Procedure, shortened: as §1

HTT CJ mRNA [2] = test: Gene panel canonical junction qPCR assay: HTT; settings: Table 3, concentration having 50% response in CJ decrease, read-out: HTT IC50 (decrease in CJ mRNA levels)
Procedure, shortened: (§2)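 A673 or K562 cells were treated 24 h at 37 °C with an 11-point 3-fold dilution series (top 10 uM; ≤0.25% DMSO). Canonical-junction mRNA was then measured in lysates by one-step RT-qPCR. Values were normalized to a housekeeping gene (GAPDH, GUSB or PPIA) and to the DMSO control via 2^(−ΔΔCt).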

SMN2 CJ mRNA = test: Gene panel canonical junction qPCR assay: SMN2; settings: Table 3, concentration having 50% response in CJ decrease, read-out: SMN2 IC50 (decrease in CJ mRNA levels)
Procedure, shortened: as §2

Target C CJ mRNA = test: Gene panel canonical junction qPCR assay: Target C; settings: Table 3, concentration having 50% response in CJ decrease, read-out: Target C IC50 (decrease in CJ mRNA levels)
Procedure, shortened: as §2

Cc1cn2cc(NC(=O)c3cc(F)c(C4CCNCC4)s3)cc(F)c2n1 [Compound 188, 4-fluoro-N-[8-fluoro-2-methylimidazo[1,2-a]pyridin-6-yl]-5-(piperidin-4-yl)thiophene-2-carboxamide]
AC50 (HTT AJ mRNA): > 10000 nM
AC50 (HTT CJ mRNA [1]): 100 to 1000 nM
IC50 (HTT CJ mRNA [2]): 100 to 1000 nM
IC50 (SMN2 CJ mRNA): 100 to 1000 nM
IC50 (Target C CJ mRNA): > 10 nM

COc1cc(N2CCNCC2=O)sc1C(=O)Nc1cc(F)c2nc(C)cn2c1 [Compound 189, N-[8-fluoro-2-methylimidazo[1,2-a]pyridin-6-yl]-3-methoxy-5-(2-oxopiperazin-1-yl)thiophene-2-carboxamide]
AC50 (HTT AJ mRNA): > 10000 nM
AC50 (HTT CJ mRNA [1]): > 10000 nM
IC50 (HTT CJ mRNA [2]): > 10 nM
IC50 (SMN2 CJ mRNA): > 10 nM
IC50 (Target C CJ mRNA): > 10 nM

Cc1cn2cc(NC(=O)c3sc(C4CCNCC4)cc3Cl)cc(F)c2n1 [Compound 190, 3-chloro-N-[8-fluoro-2-methylimidazo[1,2-a]pyridin-6-yl]-5-(piperidin-4-yl) thiophene-2-carboxamide]
AC50 (HTT AJ mRNA): 100 to 1000 nM
AC50 (HTT CJ mRNA [1]): < 100 nM
IC50 (HTT CJ mRNA [2]): < 100 nM
IC50 (SMN2 CJ mRNA): < 100 nM
IC50 (Target C CJ mRNA): 1000 to 10000 nM

Cc1cn2nc(NC(=O)c3sc(C4CCNCC4)cc3F)cc2c(C)n1 [Compound 191, N-[4,6-dimethylpyrazolo[1,5-a]pyrazin-2-yl]-3-fluoro-5-(piperidin-4-yl)thiophene-2-carboxamide]
AC50 (HTT AJ mRNA): 1000 to 10000 nM
AC50 (HTT CJ mRNA [1]): 1000 to 10000 nM
IC50 (HTT CJ mRNA [2]): 1000 to 10000 nM
IC50 (SMN2 CJ mRNA): 100 to 1000 nM
IC50 (Target C CJ mRNA): 1000 to 10000 nM

Cc1cn2nc(NC(=O)c3sc(C4CCNCC4)cc3F)nc2c(C)n1 [Compound 192, N-[6,8-dimethyl-[1,2,4]triazolo[1,5-a]pyrazin-2-yl]-3-fluoro-5-(piperidin-4-yl)thiophene-2-carboxamide]
AC50 (HTT AJ mRNA): > 10000 nM
AC50 (HTT CJ mRNA [1]): > 10000 nM
IC50 (HTT CJ mRNA [2]): > 10 nM
IC50 (SMN2 CJ mRNA): > 10 nM
IC50 (Target C CJ mRNA): > 10 nM

Cc1cn2cc(NC(=O)c3cc(Cl)c(C4CCNCC4)s3)cc(F)c2n1 [Compound 193, 4-chloro-N-[8-fluoro-2-methylimidazo[1,2-a]pyridin-6-yl]-5-(piperidin-4-yl) thiophene-2-carboxamide]
AC50 (HTT AJ mRNA): > 10000 nM
AC50 (HTT CJ mRNA [1]): > 10000 nM
IC50 (HTT CJ mRNA [2]): > 10 nM
IC50 (SMN2 CJ mRNA): 1000 to 10000 nM
IC50 (Target C CJ mRNA): > 10 nM

Cc1cn2cc(NC(=O)c3sc(C4CCNCC4)cc3F)nc2c(C)n1 [Compound 195, N-[6,8-dimethylimidazo[1,2-a]pyrazin-2-yl]-3-fluoro-5-(piperidin-4-yl)thiophene-2-carboxamide]
AC50 (HTT AJ mRNA): 1000 to 10000 nM
AC50 (HTT CJ mRNA [1]): 100 to 1000 nM
IC50 (HTT CJ mRNA [2]): 100 to 1000 nM
IC50 (SMN2 CJ mRNA): < 100 nM
IC50 (Target C CJ mRNA): > 10 nM

Cc1cn2cc(NC(=O)c3sc([C@@H]4CCN[C@H](C)C4)cc3F)cc(C(F)(F)F)c2n1 [Compound 196, 3-fluoro-N-[2-methyl-8-(trifluoromethyl)imidazo[1,2-a]pyridin-6-yl]-5-[(cis-)-2-methylpiperidin-4-yl]thiophene-2-carboxamide]
AC50 (HTT AJ mRNA): > 10000 nM
AC50 (HTT CJ mRNA [1]): 1000 to 10000 nM
IC50 (HTT CJ mRNA [2]): 1000 to 10000 nM
IC50 (SMN2 CJ mRNA): 100 to 1000 nM
IC50 (Target C CJ mRNA): > 10 nM

Cc1cn2cc(NC(=O)c3sc([C@H]4CCN[C@H](C)C4)cc3F)cc(C(F)(F)F)c2n1 [Compound 197, 3-fluoro-N-[2-methyl-8-(trifluoromethyl)imidazo[1,2-a]pyridin-6-yl]-5-[(trans-)-2-methylpiperidin-4-yl]thiophene-2-carboxamide]
AC50 (HTT AJ mRNA): 1000 to 10000 nM
AC50 (HTT CJ mRNA [1]): 1000 to 10000 nM
IC50 (HTT CJ mRNA [2]): 1000 to 10000 nM
IC50 (SMN2 CJ mRNA): 100 to 1000 nM
IC50 (Target C CJ mRNA): > 10 nM
